Assays:
Type in all cases: cell-based
[1] = Cytotoxic activity evaluation, RPMI 2650 cells; settings: human, no virus, 3 to 6 days
Protocol: (§1) <Operation Procedure (Cytotoxic Activity Evaluation)>
On the day before the compound treatment, cells prepared to an appropriate number were seeded in a 96 well plate at 100 μL/well. Thereafter, the cells were cultured in a CO2 incubator at 37° C. • Preparation of 2 μg/mL trypsin/0.5% BSA/MEM
Same as those described in the section for evaluation of antiviral activity • Dilution and dispensing of test substance
A 3- to 5-fold serial dilution series of test substances was prepared in DMSO in advance, and diluted with 2 μg/mL trypsin/0.5% BSA/MEM so that the final concentration of DMSO was 0.5% (100 to 200 μL/well). The cells were washed with MEM, and then cultured in a test substance-added medium for 3 to 6 days. Double measurement was performed for each drug. • Dispensing of resazurin solution
Same as those described in the section for evaluation of antiviral activity • Measurement of fluorescence intensity
(§2) Same as those described in the section for evaluation of antiviral activity
[formula] [formula] • Calculation of Selectivity Index (SI)

[2] = system: influenza virus (A/WSN/33 (H1N1) strain); test: CPE suppression effect confirmation test (influenza virus, RPMI 2650 cells), antiviral activity; settings: for EC50: read-out: Influenza EC50 (50% CPE inhibitory concentration), A/WSN/33 (H1N1), 3 to 6 days
[3] = system: SARS-CoV-2 (hCoV-19/Japan/TY/WK-521/2020 strain); test: CPE suppression effect confirmation test (SARS-CoV-2, Vero E6/TMPRSS2 cells), antiviral activity; settings: for EC50: Severe acute respiratory syndrome coronavirus 2, VeroE6/TMPRSS2, 72 h, read-out: SARS-CoV-2 EC50 (50% CPE inhibitory concentration), 3 days culture
[4] = Cytotoxic activity evaluation, Vero E6/TMPRSS2 cells; settings: African green monkey, no virus
Protocol: as §1
A 3- to 5-fold serial dilution series of test substances was prepared in DMSO, diluted with 2% FBS/MEM so that the concentration of DMSO was 2%, and dispensed into a 96 well plate (50 μL/well, DMSO final concentration 0.5%). • Dilution and dispensing of cells
The cells prepared to an appropriate number were seeded at 100 μL/well to the plate into which the test substance was dispensed. Thereafter, the cells were cultured in a CO2 incubator at 37° C. for 3 days. • Dispensing of CellTiter-Glo (registered trademark) 2.0 Reagent
Same as those described in the section for evaluation of antiviral activity • Measurement of luminescence intensity
as §2
Excel, TIBCO Spotfire, or a program having equivalent calculation processing capability based on the following calculation formula.

[5] = system: SARS-CoV-2 (hCoV-19/Japan/TY/WK 521/2020 strain); test: microbe, parasite or virus in culture; settings: HEK293T/ACE2-TMPRSS2 cells; for EC50: Severe acute respiratory syndrome coronavirus 2, HEK-293T, 72 h, read-out: SARS-CoV-2 EC50 (50% CPE inhibitory concentration), 293T-AT, 3 days culture

Row | Compound | CC50 [1] | Influenza SI (Selectivity Index) [2] | EC50 [2] | SARS-CoV-2 SI (Selectivity Index) [3] | EC50 [3] | CC50 at 3 days [4] | SARS-CoV-2 SI (Selectivity Index), 293T-AT [5] | EC50 [5]
1 | Nc1ncnc2c([C@@H]3O[C@H](CO)[C@@H](O)[C@H]3F)c[nH]c12 [Compound I-002] | > 500 µM | >105 | 4.77 µM | – | – | – | – | –
2 | Nc1ncnn2c([C@@H]3N[C@H](CO)[C@@H](O)C3(F)F)ccc12 [Compound I-003] | > 500 µM | >22.1 | 22.6 µM | – | – | – | – | –
3 | Nc1nc(F)nn2c([C@@H]3N[C@H](CO)[C@@H](O)[C@H]3O)ccc12 [Compound I-004] | > 500 µM | >2.06 | 243 µM | – | – | – | – | –
4 | Cc1nc(N)c2ccc([C@@H]3N[C@H](CO)[C@@H](O)[C@H]3O)n2n1.Cl.Cl [Compound I-005] | > 500 µM | >2.13 | 235 µM | – | – | – | – | –
5 | Nc1ncnn2c([C@@H]3N[C@H](CO)[C@@H](O)[C@H]3O)cc(F)c12 [Compound I-006] | 5.38 µM | 17 | 0.316 µM | – | – | – | – | –
6 | CCC1[C@@H](c2ccc3c(N)ncnn23)[C@H](O)[C@H](O)[C@H]1CO (stereo partly drawn) [Compound I-007] | > 500 µM | 1.06 | 473 µM | – | – | – | – | –
7 | Nc1ncnn2c([C@@H]3N[C@@H](CO)[C@@H](O)[C@H]3F)ccc12 [Compound I-009] | > 500 µM | 1.23 | 406 µM | – | – | – | – | –
8 | Cl.Nc1ncnn2c([C@@H]3N[C@H](CO)[C@@H](O)[C@H]3O)cc(B(O)O)c12 [Compound I-011] | 75.1 µM | 11.2 | 6.7 µM | – | – | – | – | –
9 | Nc1ncnc2c([C@@H]3N[C@H](CO)[C@@H](O)[C@H]3O)ccn12 [Compound I-012] | > 500 µM | >281 | 1.78 µM | – | – | – | – | –
10 | Nc1ncnn2c([C@@H]3N[C@H](CO)[C@@H](O)[C@H]3F)ccc12 [Compound I-013] | > 500 µM | >1.99 | 251 µM | – | – | – | – | –
11 | Nc1ncnc2c([C@@H]3O[C@H](CO)[C@@H](O)[C@H]3O)ccn12 [Compound I-014] | 13.1 µM | 69.7 | 0.188 µM | – | – | – | – | –
12 | N=C(N)c1cc([C@@H]2N[C@H](CO)[C@@H](O)[C@H]2O)n2ncnc(N)c12 [Compound I-017] | – | – | – | >11.1 | 44.9 µM | > 500 µM | – | –
13 | O=c1[nH]cnn2c([C@@H]3N[C@H](CO)[C@@H](O)[C@H]3O)ccc12 [Compound I-019] | > 500 µM | >7.62 | 65.6 µM | – | – | – | – | –
14 | Cl.Nc1ncnn2c([C@@H]3N[C@H](CO)[C@@H](O)[C@H]3O)cc(-c3nccs3)c12 [Compound I-021] | > 500 µM | >20.9 | 23.9 µM | – | – | – | – | –
15 | Nc1ncnn2c([C@@H]3N[C@H](CO)[C@@H](O)[C@H]3O)cc(/C=N\O)c12 [Compound I-026] | > 500 µM | >518 | 0.965 µM | – | – | – | – | –
16 | Nc1ncnn2c([C@@H]3N[C@H](CO)[C@@H](O)[C@H]3O)cc(-c3cncs3)c12 [Compound I-027] | > 500 µM | >48.5 | 10.3 µM | – | – | – | – | –
17 | N#CCc1cc([C@@H]2N[C@H](CO)[C@@H](O)[C@H]2O)n2ncnc(N)c12 [Compound I-028] | 102 µM | 20.6 | 4.95 µM | – | – | – | – | –
18 | Cl.Nc1ncnn2c([C@@H]3N[C@H](CO)[C@@H](O)[C@H]3O)cc(-c3ccn[nH]3)c12 [Compound I-029] | – | – | – | 9.01 | 34.7 µM | 316 µM | – | –
19 | Nc1ncnc2c([C@@H]3N[C@H](CO)[C@@H](O)[C@H]3O)cc(/C=N/O)n12 [Compound I-031] | > 500 µM | >1.46 | 343 µM | – | – | – | – | –
20 | Cl.Nc1ncnn2c([C@H]3N[C@@H](CO)[C@H](O)[C@@H]3O)cc(B(O)O)c12 [Compound I-032] | > 500 µM | >1.38 | 361 µM | – | – | – | – | –

Row | Compound | CC50 [1] | Influenza SI (Selectivity Index) [2] | EC50 [2] | SARS-CoV-2 SI (Selectivity Index) [3] | EC50 [3] | CC50 at 3 days [4] | SARS-CoV-2 SI (Selectivity Index), 293T-AT [5] | EC50 [5]
21 | Nc1ncnn2c([C@@H]3N[C@H](CO)[C@@H](O)[C@H]3O)cc(-c3ncc[nH]3)c12 [Compound I-033] | – | – | – | >134 | 3.74 µM | > 500 µM | – | –
22 | OC[C@H]1N[C@@H](c2ccn3c(NO)ncnc23)[C@H](O)[C@@H]1O [Compound I-035] | > 500 µM | >1.33 | 375 µM | – | – | – | – | –
23 | Cn1cnc(-c2cc([C@@H]3N[C@H](CO)[C@@H](O)[C@H]3O)n3ncnc(N)c23)c1 [Compound I-039] | – | – | – | >6.02 | 83.1 µM | > 500 µM | – | –
24 | Cl.Cn1cc(-c2cc([C@@H]3N[C@H](CO)[C@@H](O)[C@H]3O)n3ncnc(N)c23)nn1 [Compound I-040] | – | – | – | >5.93 | 84.3 µM | > 500 µM | – | –
25 | Nc1ncnn2c([C@@H]3N[C@H](CO)[C@@H](O)[C@H]3O)cc(-c3cccnc3)c12 [Compound I-041] | > 500 µM | >76.2 | 5.56 µM | – | – | – | – | –
26 | N#C[C@@]1(c2cnc3c(N)ncnn23)O[C@H](CO)[C@@H](O)C1O (stereo partly drawn) [Compound I-042] | – | – | – | >6.66 | 75.1 µM | > 500 µM | – | –
27 | Cc1cnc(-c2cc([C@@H]3N[C@H](CO)[C@@H](O)[C@H]3O)n3ncnc(N)c23)s1 [Compound I-043] | > 500 µM | >2.46 | 203 µM | – | – | – | – | –
28 | CCn1cc(-c2cc([C@@H]3N[C@H](CO)[C@@H](O)[C@H]3O)n3ncnc(N)c23)cn1.Cl [Compound I-044] | – | – | – | 16.6 | 22.6 µM | 444 µM | – | –
29 | Cl.Nc1ncnn2c([C@@H]3N[C@H](CO)[C@@H](O)[C@H]3O)cc(-c3nc4ccccc4s3)c12 [Compound I-045] | – | – | – | 25.4 | 3.78 µM | 96 µM | – | –
30 | N#C[C@@]1(c2ccn3c(N)ncnc23)O[C@H](CO)[C@@H](O)[C@H]1O [Compound I-046] | – | – | – | 15.6 | 31.1 µM | 485 µM | – | –
31 | Cc1nc(-c2cc([C@@H]3N[C@H](CO)[C@@H](O)[C@H]3O)n3ncnc(N)c23)c[nH]1.Cl [Compound I-047] | – | – | – | >10.4 | 48.2 µM | > 500 µM | – | –
32 | Cl.Nc1ncnn2c([C@@H]3N[C@H](CO)[C@@H](O)[C@H]3O)cc(-c3n[nH]c4ccccc34)c12 [Compound I-049] | – | – | – | 5.7 | 69.6 µM | 397 µM | – | –
33 | Cc1cc(-c2cc([C@@H]3N[C@H](CO)[C@@H](O)[C@H]3O)n3ncnc(N)c23)[nH]n1.Cl [Compound I-050] | – | – | – | >11.0 | 45.4 µM | > 500 µM | – | –
34 | Cl.Nc1ncnn2c([C@@H]3N[C@H](CO)[C@@H](O)[C@H]3O)cc(-c3ccc(F)cn3)c12 [Compound I-051] | – | – | – | >6.13 | 81.5 µM | > 500 µM | – | –
35 | Cl.Nc1nc(F)nn2c([C@@H]3N[C@H](CO)[C@@H](O)[C@H]3O)cc(-c3cc[nH]n3)c12 [Compound I-052] | – | – | – | >79.7 | 6.27 µM | > 500 µM | – | –
36 | Nc1ncnn2c([C@@H]3N[C@H](CO)[C@@H](O)[C@H]3O)cc(-c3c[nH]nn3)c12 [Compound I-053] | – | – | – | 677 | 0.465 µM | 315 µM | – | –
37 | N#C[C@@]1(c2ccc3c(N)ncnn23)O[C@H](CO)[C@@H](O)[C@H]1O [GS-441524, reference compound] | – | – | > 500 µM | – | – | – | – | –
38 | Nc1ncnc2c([C@@H]3N[C@H](CO)[C@@H](O)[C@H]3O)c[nH]c12 [Galidesivir, reference compound] | – | – | – | – | > 100 µM | – | <5.3 | > 20 µM
39 | Nc1ncnc2c([C@@H]3N[C@H](CO)[C@@H](O)[C@H]3O)cnn12 [WO2006002231 Example 13_9-4, reference compound] | – | 4.69 | 87.8 µM | – | – | – | – | –
40 | Nc1ncnn2c([C@@H]3N[C@H](CO)[C@@H](O)[C@H]3O)ccc12 [WO2014078778 Example5_30 g, reference compound] | – | 73.7 | 0.471 µM | <0.41 | > 4 µM | – | <1.34 | > 4 µM

— patent US20250170155A1, “NUCLEOSIDE DERIVATIVES AND PRODRUGS THEREOF HAVING VIRAL GROWTH INHIBITORY ACTION” (Shionogi & Co., Ltd., priority 2021, published 2025)
